The values that follow come from patent US20230142913A1, “TRICYCLIC HETEROARENES, PHARMACEUTICAL COMPOSITIONS CONTAINING THE SAME, AND METHODS OF USING THE SAME” (priority 2021, published 2023).

Like-named read-outs stand apart in the source and are kept apart here. A value given as a limit tells only on which side of the number the result lay.

The term IC50 denotes the midpoint of a concentration-inhibition curve.

This experiment concerns the target T1, recombinant human Myt1 (full length PKMYT1) (Homo sapiens, UniProt Q99640).
T1 sequence (Q99640 1-499): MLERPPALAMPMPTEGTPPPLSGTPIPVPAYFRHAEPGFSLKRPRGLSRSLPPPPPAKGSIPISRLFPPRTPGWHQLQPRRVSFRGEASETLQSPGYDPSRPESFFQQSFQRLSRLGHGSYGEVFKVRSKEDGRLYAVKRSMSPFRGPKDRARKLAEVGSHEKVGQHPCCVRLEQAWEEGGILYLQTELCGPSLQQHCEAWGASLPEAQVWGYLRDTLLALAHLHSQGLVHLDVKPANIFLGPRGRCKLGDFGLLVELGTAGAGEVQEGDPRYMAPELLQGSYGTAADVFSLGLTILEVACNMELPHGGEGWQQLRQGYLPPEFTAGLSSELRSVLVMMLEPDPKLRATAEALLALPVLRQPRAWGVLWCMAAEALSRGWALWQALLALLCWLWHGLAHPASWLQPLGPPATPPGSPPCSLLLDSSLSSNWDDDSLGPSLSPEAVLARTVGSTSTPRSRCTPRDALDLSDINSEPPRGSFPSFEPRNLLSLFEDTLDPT
Put plainly: Recombinant human Myt1 kinase assay (ADP-Glo).

Setting [1] is: read-out: Myt1 IC50, recombinant human Myt1 18 nM, ATP 10 μM, ADP-Glo luminescence.
The mark [2] stands for this setting: Myt1 IC50 (nM), recombinant human Myt1 18 nM, ATP 10 μM, ADP-Glo luminescence.

Experimental: Detection of Myt1 kinase activity utilized a recombinant human Myt1 kinase assay measuring the hydrolysis of ATP using a commercially available ADP-Glo Assay (ADP-Glo™ Kinase Assay from Promega, 10 000 assays, #V9102). […] After this, 5 μL of compounds (diluted in reaction buffer to 0.5% DMSO) was added to the microplate and the plate was spun briefly and incubated at 22° C. for 15 minutes. […] Luminescence was read using the Envision (250 ms integration). The IC50 and the % max inhibition were calculated for each inhibitor compound tested.

With “2-amino-1-(3-hydroxy-2,6-dimethyl-phenyl)-7-(1-hydroxy-1-methyl-ethyl)pyrrolo[3,2-b]quinoxaline-3-carboxamide or 2-amino-1-(3-hydroxy-2,6-dimethyl-phenyl)-6-(1-hydroxy-1-methyl-ethyl)pyrrolo[3,2-b]quinoxaline-3-carboxamide [Compound 67]”, the half-inhibitory concentration (IC50) under setting [1] stood at 10 nM. Take “2-amino-1-(3-hydroxy-2,6-dimethyl-phenyl)-7-(morpholine-4-carbonyl)pyrrolo[3,2-b]quinoxaline-3-carboxamide or 2-amino-1-(3-hydroxy-2,6-dimethyl-phenyl)-6-(morpholine-4-carbonyl)pyrrolo[3,2-b]quinoxaline-3-carboxamide [Compound 66]”: the half-maximal inhibitory concentration (IC50) under setting [1] came out at 13 nM. On the same count and under the same terms, the same measure for “2-amino-1-(3-hydroxy-2,6-dimethylphenyl)-1H-pyrido[2,3-b]pyrrolo[2,3-e]pyrazine-3-carboxamide or 2-amino-1-(3-hydroxy-2,6-dimethylphenyl)-1H-pyrido[2,3-b]pyrrolo[3,2-e]pyrazine-3-carboxamide [Compound 82]”: 21 nM; for “2-amino-7-bromo-1-(3-hydroxy-2,6-dimethylphenyl)-1H-pyrido[2,3-b]pyrrolo[2,3-e]pyrazine-3-carboxamide or 2-amino-6-bromo-1-(3-hydroxy-2,6-dimethylphenyl)-1H-pyrido[2,3-b]pyrrolo[3,2-e]pyrazine-3-carboxamide [Compound 79]”: 30 nM. Regarding `NC(=O)c1c(N)n(-c2cc(O)ccc2Cl)c2nc3ccccc3nc12` [Compound 4], the IC50 came to 130 nM. On the same count and under the same terms, as for `NC(=O)c1c(N)n(-c2cccc3[nH]nc(Cl)c23)c2nc3ccccc3nc12` [Compound 8], the figure is 289 nM.

On to `NC(=O)c1c(N)n(-c2cccc3[nH]nc(F)c23)c2nc3ccccc3nc12` [Compound 9], for which the IC50 came to 281 nM. In the case of `Cc1ccc(O)c(C2CC2)c1-n1c(N)c(C(N)=O)c2nc3ccccc3nc21` [Compound 11], the half-inhibitory concentration (IC50) amounted to 2170 nM. As for `CCc1c(O)ccc(C)c1-n1c(N)c(C(N)=O)c2nc3ccccc3nc21` [Compound 12], the half-maximal inhibitory concentration (IC50) was determined as 98 nM. The same measure, in the same setting: the same measure for `CCc1ccc(O)c(C)c1-n1c(N)c(C(N)=O)c2nc3ccccc3nc21` [Compound 13]: 427 nM; for `Cc1ccc(O)cc1-n1c(N)c(C(N)=O)c2nc3nc(N)sc3nc21` [Compound 16, 2,6-diamino-5-(5-hydroxy-2-methylphenyl)-5H-pyrrolo[2,3-b]thiazolo[4,5-e]pyrazine-7-carboxamide]: 94 nM; for `Cc1ccc(O)cc1-n1c(N)c(C(=O)NC2CC2)c2nc3ccccc3nc21` [Compound 20, 2-amino-N-cyclopropyl-1-(5-hydroxy-2-methylphenyl)-1H-pyrrolo[2,3-b]quinoxaline-3-carboxamide]: 7580 nM.

Consider `Cc1ccc(O)cc1-n1cc(C(N)=O)c2nc3ccccc3nc21` [Compound 23], for which the IC50 was found to be 323 nM. On to `Cc1ccc(O)c(C)c1-n1c(N)c(C(N)=O)c2nc3c(F)ccc(F)c3nc21` [Compound 28], for which the IC50 is less than 10 nM. As for `Cc1ccc(O)c(C)c1-n1c(N)c(C(N)=O)c2nc3c(C#CC4CC4)cccc3nc21` [Compound 33], the IC50 worked out at 16 nM.

For `Cc1ccc(O)c(C)c1-n1c(N)c(C(N)=O)c2nc3c(C4=CCOCC4)cccc3nc21` [Compound 34], the IC50 stood at 12 nM. Still for that read-out and setting: the same measure for `Cc1ccc(O)c(C)c1-n1c(N)c(C(N)=O)c2nc3c(-c4cccn4C)cccc3nc21` [Compound 35]: less than 10 nM. The same measure, in the same setting: the same measure for `Cc1ccc(O)c(C)c1-n1c(N)c(C(N)=O)c2nc3c(-c4ccccc4)cccc3nc21` [Compound 36]: 17 nM.

Turning to `Cc1ccc(O)c(C)c1-n1c(N)c(C(N)=O)c2nc3cc(Br)ccc3nc21` [Compound 38, 2-amino-6-bromo-1-(3-hydroxy-2,6-dimethyl-phenyl)pyrrolo[2,3-b]quinoxaline-3-carboxamide], the IC50 under setting [2] is less than 10 nM. On to `Cc1ccc(O)c(C)c1-n1c(N)c(C(N)=O)c2nc3cc(C#CC4CC4)ccc3nc21` [Compound 40], for which the IC50 was less than 10 nM.

As for `Cc1ccc(O)c(C)c1-n1c(N)c(C(N)=O)c2nc3cc(C#Cc4cnccn4)ccc3nc21` [Compound 43], the IC50 is less than 10 nM. Same read-out and setting: as for `Cc1ccc(O)c(C)c1-n1c(N)c(C(N)=O)c2nc3cc(C#CCN4CCOCC4)ccc3nc21` [Compound 44], the figure is less than 10 nM. Consider `Cc1ccc(O)c(C)c1-n1c(N)c(C(N)=O)c2nc3cc(C#CCO)ccc3nc21` [Compound 45, 2-amino-1-(3-hydroxy-2,6-dimethyl-phenyl)-6-(3-hydroxyprop-1-ynyl)pyrrolo[2,3-b]quinoxaline-3-carboxamide], for which the IC50 is less than 10 nM. `Cc1ccc(O)c(C)c1-n1c(N)c(C(N)=O)c2nc3cc(CCCO)ccc3nc21` [Compound 46, 2-amino-1-(3-hydroxy-2,6-dimethyl-phenyl)-6-(3-hydroxypropyl)pyrrolo[2,3-b]quinoxaline-3-carboxamide]: the IC50 is less than 10 nM. Still for that read-out and setting: as for `Cc1ccc(O)c(C)c1-n1c(N)c(C(N)=O)c2nc3cc(-c4ccccc4)ccc3nc21` [Compound 47], the figure is less than 10 nM; as for `Cc1ccc(O)c(C)c1-n1c(N)c(C(N)=O)c2nc3cc(-c4cccc(C#N)c4)ccc3nc21` [Compound 48], 11 nM; as for `Cc1ccc(O)c(C)c1-n1c(N)c(C(N)=O)c2nc3cc(C4=CCOCC4)ccc3nc21` [Compound 51], less than 10 nM. In the case of `Cc1ccc(O)c(C)c1-n1c(N)c(C(N)=O)c2nc3cc(-c4ccc(N5CCN(CCO)CC5)cc4)ccc3nc21` [Compound 52], the IC50 is less than 10 nM. For the compound `Cc1ccc(O)c(C)c1-n1c(N)c(C(N)=O)c2nc3cc(-c4cn[nH]c4)ccc3nc21` [Compound 54], the IC50 is less than 10 nM. On to `Cc1ccc(O)c(C)c1-n1c(N)c(C(N)=O)c2nc3ccc(C#CCO)cc3nc21` [Compound 58], for which the IC50 worked out at 11 nM. Regarding `Cc1ccc(O)c(C)c1-n1c(N)c(C(N)=O)c2nc3cccc(Br)c3nc21` [Compound 59, 2-amino-8-bromo-1-(3-hydroxy-2,6-dimethyl-phenyl)pyrrolo[3,2-b]quinoxaline-3-carboxamide], the IC50 under setting [2] is less than 10 nM. The same measure, in the same setting: as for `Cc1ccc(O)c(C)c1-n1c(N)c(C(N)=O)c2nc3cccc(-c4ccnn4C)c3nc21` [Compound 61], the figure is less than 10 nM; as for `Cc1ccc(O)c(C)c1-n1c(N)c(C(N)=O)c2nc3cccc(C4=CCCC4)c3nc21` [Compound 62], less than 10 nM. Turning to `C=C(C)c1ccc2nc3c(C(N)=O)c(N)n(-c4c(C)ccc(O)c4C)c3nc2c1` [Compound 68, 2-amino-1-(3-hydroxy-2,6-dimethyl-phenyl)-7-isopropenyl-pyrrolo[3,2-b]quinoxaline-3-carboxamide or either 2-amino-1-(3-hydroxy-2,6-dimethyl-phenyl)-6-isopropenyl-pyrrolo[3,2-b]quinoxaline-3-carboxamide], the IC50 is 13 nM. The same measure, in the same setting: as for `Cc1ccc(O)c(C)c1-n1c(N)c(C(N)=O)c2nc3c(nc21)CCCC3` [Compound 84], the figure is 11 nM; as for `Cc1c(O)ccc(C2CC2)c1-n1c(N)c(C(N)=O)c2nc3ccccc3nc21` [Compound 85], 48900 nM. Take `Cc1ccc(O)c(C)c1-n1cc(C(N)=O)c2c3ccccc3cnc21` [Compound 88, 3-(3-hydroxy-2,6-dimethylphenyl)-3H-pyrrolo[2,3-c]isoquinoline-1-carboxamide]: the IC50 stood at 32 nM. The same measure, in the same setting: as for `Cc1ccc(O)c(C)c1-n1cc(C(N)=O)c2cc3c(cnn3C)nc21` [Compound 89, 5-(3-hydroxy-2,6-dimethylphenyl)-1-methyl-1,5-dihydropyrazolo[4,3-b]pyrrolo[3,2-e]pyridine-7-carboxamide], the figure is 31 nM.
